Experimental data as given in patent US20240067631A1, “PYRAZOLE DERIVATIVES USEFUL AS NAMPT MODULATORS” (Cytokinetics, Inc., priority 2020, published 2024).

Target: human NAMPT (Homo sapiens (Human), UniProt P43490)
Assay: Human recombinant enzyme assay (NMN fluorescence biochemical assay)
Conditions: 6 nM human NAMPT, 60 min; for AC1.4 Human: concentration of compound that generates 40% higher activity over basal; for EC50: concentration that gives half-maximal activation
How it was run: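 Recombinant human NAMPT (6 nM) with 2.5 mM ATP, […] PRPP and […] nicotinamide in HEPES pH 7.2 with DTT, CHAPS, NaCl, MgCl2; 60 min at ambient temperature. NMN derivatised with acetophenone/KOH/formic acid, fluorescence read at 355/460 nm. AC1.4 (40% above basal) and EC50 reported.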

Sequence of human NAMPT (P43490 whole entry): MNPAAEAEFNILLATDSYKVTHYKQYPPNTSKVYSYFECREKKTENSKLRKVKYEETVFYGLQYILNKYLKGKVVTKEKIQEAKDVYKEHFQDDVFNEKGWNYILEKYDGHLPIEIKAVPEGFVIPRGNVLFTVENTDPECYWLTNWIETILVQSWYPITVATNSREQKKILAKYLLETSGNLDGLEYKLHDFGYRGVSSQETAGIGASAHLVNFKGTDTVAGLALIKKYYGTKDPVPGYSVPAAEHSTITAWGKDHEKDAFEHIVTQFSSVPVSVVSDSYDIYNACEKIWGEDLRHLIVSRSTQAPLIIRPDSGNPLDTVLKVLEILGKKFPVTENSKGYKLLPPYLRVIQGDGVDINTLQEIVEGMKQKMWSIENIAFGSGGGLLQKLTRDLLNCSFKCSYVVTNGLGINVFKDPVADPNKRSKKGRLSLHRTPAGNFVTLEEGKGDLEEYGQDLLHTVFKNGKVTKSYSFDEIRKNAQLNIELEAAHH

Row | AC1.4 Human | EC50 | Structure (SMILES)
1 | 0.409 µM | 2110 nM | Cc1nc(C(=O)N2CC[C@@H](c3ccccc3)C2)nc(NCCc2cn[nH]c2)c1C [Compound 61, (S)-(4-((2-(1H-pyrazol-4-yl)ethyl)amino)-5,6-dimethylpyrimidin-2-yl)(3-phenylpyrrolidin-1-yl)methanone]
2 | 2.084 µM | 18300 nM | Cc1nc(C(=O)NCCc2ccncc2F)nc(NCCc2cn[nH]c2)c1C [Compound 113, 4-((2-(1H-pyrazol-4-yl)ethyl)amino)-N-(2-(3-fluoropyridin-4-yl)ethyl)-5,6-dimethylpyrimidine-2-carboxamide]
3 | 3.809 µM | 28500 nM | Cc1cccc(F)c1NC(=O)c1nc(C)c(C)c(NCCc2cn[nH]c2)n1 [Compound 139, 4-((2-(1H-pyrazol-4-yl)ethyl)amino)-N-(2-fluoro-6-methylphenyl)-5,6-dimethylpyrimidine-2-carboxamide]
4 | 0.0745 µM | 597 nM | Cc1nc(C(=O)N2CC(c3cccc(F)c3)C2)nc(NCCc2cn[nH]c2)c1C [Compound 18, (4-((2-(1H-pyrazol-4-yl)ethyl)amino)-5,6-dimethylpyrimidin-2-yl)(3-(3-fluorophenyl)azetidin-1-yl)methanone]
5 | 1.6495 µM | 11300 nM | Cc1nc(C(=O)NCC(C)(O)c2ccccc2)nc(NCCc2cn[nH]c2)c1C (stereo not shown) [Compound 104, 4-((2-(1H-pyrazol-4-yl)ethyl)amino)-N-(2-hydroxy-2-phenylpropyl)-5,6-dimethylpyrimidine-2-carboxamide]
6 | 0.0465 µM | 282 nM | Cc1nc(C(=O)NC(C)(C)c2cccc(F)c2)nc(NCCc2cn[nH]c2)c1C [Compound 11, 4-((2-(1H-pyrazol-4-yl)ethyl)amino)-N-(2-(3-fluorophenyl)propan-2-yl)-5,6-dimethylpyrimidine-2-carboxamide]
7 | 0.21 µM | 1510 nM | Cc1nc(C(=O)N[C@H](C)c2cccc(F)c2)nc(NCCc2cn[nH]c2)c1C [Compound 39, (R)-4-((2-(1H-pyrazol-4-yl)ethyl)amino)-N-(1-(3-fluorophenyl)ethyl)-5,6-dimethylpyrimidine-2-carboxamide]
8 | 2.6905 µM | 12000 nM | COc1cccnc1[C@@H](C)NC(=O)c1nc(C)c(C)c(NCCc2cn[nH]c2)n1 [Compound 124, (R)-4-((2-(1H-pyrazol-4-yl)ethyl)amino)-N-(1-(3-methoxypyridin-2-yl)ethyl)-5,6-dimethylpyrimidine-2-carboxamide]
9 | 0.3305 µM | 1780 nM | Cc1nc(C(=O)N2CC[C@H](c3ccccc3)C2)nc(NCCc2cn[nH]c2)c1C [Compound 52, (R)-(4-((2-(1H-pyrazol-4-yl)ethyl)amino)-5,6-dimethylpyrimidin-2-yl)(3-phenylpyrrolidin-1-yl)methanone]
10 | 0.8395 µM | 4620 nM | Cc1nc(C(=O)NC2CC(F)(F)c3ccccc32)nc(NCCc2cn[nH]c2)c1C (stereo not shown) [Compound 79, 4-((2-(1H-pyrazol-4-yl)ethyl)amino)-N-(3,3-difluoro-2,3-dihydro-1H-inden-1-yl)-5,6-dimethylpyrimidine-2-carboxmaide]
11 | 1.072 µM | 8350 nM | Cc1nc(C(=O)NC2(Cc3ccc(F)cc3Cl)CCOCC2)nc(NCCc2cn[nH]c2)c1C [Compound 85, 4-((2-(1H-pyrazol-4-yl)ethyl)amino)-N-(4-(2-chloro-4-fluorobenzyl)tetrahydro-2H-pyran-4-yl)-5,6-dimethylpyrimidine-2-carboxamide]
12 | 4.433 µM | 46000 nM | Cc1nc(C(=O)NCCC(C)(C)C(F)(F)F)nc(NCCc2cn[nH]c2)c1C [Compound 143, 4-((2-(1H-pyrazol-4-yl)ethyl)amino)-5,6-dimethyl-N-(4,4,4-trifluoro-3,3-dimethylbutyl)pyrimidine-2-carboxamide]
13 | 4.125 µM | 30700 nM | Cc1nc(C(=O)N2CCOCC2C(F)(F)F)nc(NCCc2cn[nH]c2)c1C (stereo not shown) [Compound 138, (4-((2-(1H-pyrazol-4-y)ethyl)amino)-5,6-dimethylpyrimidin-2-yl)(3-(trifluoromethyl)morpholino)methanone]
14 | 0.6455 µM | 3240 nM | Cc1nc(C(=O)N[C@@H](C)c2cccc(F)n2)nc(NCCc2cn[nH]c2)c1C [Compound 73, (S)-4-((2-(1H-pyrazol-4-yl)ethyl)amino)-N-(1-(6-fluoropyridin-2-yl)ethyl)-5,6-dimethylpyrimidine-2-carboxamide]
15 | 0.0385 µM | 1840 nM | Cc1nc(C(=O)N2CCC(c3c[nH]c4ccccc34)CC2)nc(NCCc2cn[nH]c2)c1C [Compound 6, (4-(1H-indol-3-yl)piperidin-1-yl)(4-((2-(1H-pyrazol-4-yl)ethyl)amino)-5,6-dimethylpyrimidin-2-yl)methanone]
16 | 4.313 µM | 22000 nM | Cc1nc(C(=O)N2CC(C)(O)C2)nc(NCCc2cn[nH]c2)c1C [Compound 125, (4-((2-(1H-pyrazol-4-yl)ethyl)amino)-5,6-dimethylpyrimidin-2-yl)(3-hydroxy-3-methylazetidin-1-yl)methanone]

Row | AC1.4 Human | EC50 | Structure (SMILES)
17 | 0.2845 µM | 2350 nM | Cc1nc(C(=O)NC(c2cccc(F)c2)c2ccccn2)nc(NCCc2cn[nH]c2)c1C (stereo not shown) [Compound 46, 4-((2-(1H-pyrazol-4-yl)ethyl)amino)-N-((3-fluorophenyl)(pyridin-2-yl)methyl)-5,6-dimethylpyrimidine-2-carboxamide]
18 | 0.2615 µM | 2870 nM | Cc1nc(C(=O)NC(C)(C)Cc2cccc(F)c2)nc(NCCc2cn[nH]c2)c1C [Compound 41, 4-((2-(1H-pyrazol-4-yl)ethyl)amino)-N-(1-(3-fluorophenyl)-2-methylpropan-2-yl)-5,6-dimethylpyrimidine-2-carboxamide]
19 | 12.6 µM | – | Cc1cc(NCCc2cn[nH]c2)nc(C(=O)N2CCC[C@@H]2c2cccc(F)c2)c1 [Compound 152]
20 | 0.007 µM | 156 nM | CNC(=O)c1nc(C)c(C)c(N(CCc2ccccc2)CCc2cn[nH]c2)n1 [Compound 2, 4-((2-(1H-pyrazol-4-yl)ethyl)(phenethyl)amino)-N,5,6-trimethylpyrimidine-2-carboxamide]
21 | 0.311 µM | 2080 nM | Cc1nc(C(=O)NCCc2ccccc2)nc(NCCc2cn[nH]c2)c1C [Compound 50, 4-((2-(1H-pyrazol-4-yl)ethyl)amino)-5,6-dimethyl-N-phenethylpyrimidine-2-carboxamide]
22 | 0.192 µM | 1610 nM | Cc1nc(C(=O)NCc2ccccc2)nc(NCCc2cn[nH]c2)c1C [Compound 31, 4-((2-(1H-pyrazol-4-yl)ethyl)amino)-N-benzyl-5,6-dimethylpyrimidine-2-carboxamide]
23 | 0.877 µM | 10400 nM | Cc1nc(C(=O)N2CCOCC2c2ccccc2Cl)nc(NCCc2cn[nH]c2)c1C (stereo not shown) [Compound 80, (4-((2-(1H-pyrazol-4-yl)ethyl)amino)-5,6-dimethylpyrimidin-2-yl)(3-(2-chlorophenyl)morpholino)methanone]
24 | 3.778 µM | 50200 nM | Cc1nc(C(=O)NC(c2cccnc2)C(F)(F)F)nc(NCCc2cn[nH]c2)c1C (stereo not shown) [Compound 136, 4-((2-(1H-pyrazol-4-yl)ethyl)amino)-5,6-dimethyl-N-(2,2,2-trifluoro-1-(pyridin-3-yl)ethyl)pyrimidine-2-carboxamide]
25 | 31.857 µM | 40200 nM | Cc1nc(C(=O)N2CC(CO)(c3ccccc3)C2)nc(NCCc2cn[nH]c2)c1C [Compound 84, (4-((2-(1H-pyrazol-4-yl)ethyl)amino)-5,6-dimethylpyrimidin-2-yl)(3-(hydroxymethyl)-3-phenylazetidin-1-yl)methanone]
26 | 0.193 µM | 929 nM | Cc1nc(C(=O)NCc2cccc(F)c2)nc(NCCc2cn[nH]c2)c1C [Compound 32, 4-((2-(1H-pyrazol-4-yl)ethyl)amino)-N-(3-fluorobenzyl)-5,6-dimethylpyrimidine-2-carboxamide]
27 | 0.375 µM | 4680 nM | Cc1nc(C(=O)NCc2cccc(F)n2)nc(NCCc2cn[nH]c2)c1C [Compound 55, 4-((2-(1H-pyrazol-4-yl)ethyl)amino)-N-((6-fluoropyridin-2-yl)methyl)-5,6-dimethylpyrimidine-2-carboxamide]
28 | 0.106 µM | 872 nM | Cc1nc(C(=O)N2CCOCC2(C)c2ccccc2)nc(NCCc2cn[nH]c2)c1C (stereo not shown) [Compound 25, (4-((2-(1H-pyrazol-4-yl)ethyl)amino)-5,6-dimethylpyrimidin-2-yl)(3-methyl-3-phenylmorpholino)methanone]
29 | 0.0325 µM | 182 nM | Cc1nc(C(=O)N[C@@H](C)c2cccs2)nc(NCCc2cn[nH]c2)c1C [Compound 8, (S)-4-((2-(1H-pyrazol-4-yl)ethyl)amino)-5,6-dimethyl-N-(1-(thiophen-2-yl)ethyl)pyrimidine-2-carboxamide]
30 | 0.2055 µM | 1190 nM | Cc1cccnc1[C@@H](C)NC(=O)c1nc(C)c(C)c(NCCc2cn[nH]c2)n1 [Compound 37, (R)-4-((2-(1H-pyrazol-4-yl)ethyl)amino)-5,6-dimethyl-N-(1-(3-methylpyridin-2-yl)ethyl)pyrimidine-2-carboxamide]
31 | 0.275 µM | 1840 nM | Cc1nc(C(=O)N2CCN(C)CC2c2ccccc2)nc(NCCc2cn[nH]c2)c1C (stereo not shown) [Compound 44, (4-((2-(1H-pyrazol-4-yl)ethyl)amino)-5,6-dimethylpyrimidin-2-yl)(4-methyl-2-phenylpiperazin-1-yl)methanone]
